Data reported in article PMC7586935 (Journal of Clinical Pharmacology, 2020).
Where a name gives a salt, the structure may show the parent alone. Read-outs that look alike come from different tables or passages of the source.

How the values were obtained:
[1] = system: HR, PR, and QRS of healthy volunteers; experiment: PK-PD analysis of other ECG parameters; assay type: in vivo, human
[2] = system: healthy volunteers; experiment: Safety assessment: treatment-emergent adverse events; assay type: in vivo, human
[3] = system: QT/QTc interval of healthy volunteers; experiment: Concentration-QTc
[4] = system: human ether‐a‐go‐go–related gene potassium channels; settings: in vitro, at clinically relevant plasma concentrations; cited from earlier work
[5] = system: QTcF interval of healthy volunteers; experiment: Time-matched analysis of placebo-adjusted change from baseline QTcF; assay type: in vivo, human
[6] = system: healthy volunteers; experiment: ECG morphological analyses; assay type: in vivo, human
[7] = Plasma pharmacokinetics after single oral dose; assay type: in vivo; settings: human; for AUC / Tmax: oral; for Cmax: po
[8] = system: CYP3A4; settings: cited from earlier work
[9] = mean ± SE, cited from earlier work
[10] = system: healthy volunteers; experiment: ECG outlier analyses; assay type: in vivo, human
[11] = 50 mg trazodone HCl with ritonavir (4 doses of 200 mg)
[12] = 50 mg trazodone HCl, control condition

## O=c1n(CCCN2CCN(c3cccc(Cl)c3)CC2)nc2ccccn12 [Trazodone, Trazodone hydrochloride]
[1]; SE 0.8013
  Slope of HR change from baseline vs trazodone plasma concentration: 2.199
[1]; in vivo
  Slope of PR change from baseline vs trazodone plasma concentration: –3.6040
  Slope of QRS change from baseline vs trazodone plasma concentration: 0.0445
[1]; trazodone 20 mg
  Predicted placebo-adjusted and baseline-corrected HR at mean Cmax: 1.45 bpm
[1]; trazodone 60 mg
  Predicted placebo-adjusted and baseline-corrected HR at mean Cmax: 2.12 bpm
[1]; trazodone 140 mg
  Predicted placebo-adjusted and baseline-corrected HR at mean Cmax: 2.76 bpm
  Predicted placebo-adjusted and baseline-corrected PR at predicted Cmax: –7.4 ms
  Predicted placebo-adjusted and baseline-corrected QRS at predicted Cmax: 0.115 ms
[2]; trazodone 20 mg
  Dizziness, frequency of subjects: 0%
  Somnolence, frequency of subjects: 44.4%
[2]; trazodone 60 mg
  Dizziness, frequency of subjects: 5.6%
  Somnolence, frequency of subjects: 50.0%
[2]; trazodone 140 mg
  Headache, frequency of subjects: 10%
  Somnolence, frequency of subjects: 85.0%
  Vomiting, frequency of subjects: 10%
[2]; trazodone 140 mg, 1 subject
  Treatment-related ECG QT prolongation, frequency of subjects: 5%
  Treatment-related abdominal discomfort, frequency of subjects: 5%
  Treatment-related hypertension, frequency of subjects: 5%
  Treatment-related hypotension, frequency of subjects: 5%
  Treatment-related palpitations, frequency of subjects: 5%
[3]; trazodone 60 mg, mean Cmax 1269.0 ng/mL
  Predicted Mean Effect at Mean Cmax (placebo-corrected change from baseline QTcF, ΔΔQTcF): 12.3 ms
[3]; trazodone 140 mg, mean Cmax 2083.5 ng/mL
  Predicted Mean Effect at Mean Cmax (placebo-corrected change from baseline QTcF, ΔΔQTcF): 19.8 ms
[4]
  Inhibition of hERG potassium channels: potent dose‐dependent inhibition
[5]; trazodone 20 mg, N = 16, 5 min postdose
  Placebo-adjusted change from baseline QTcF, estimate (90%CI): –3.3 (–7.8 to 1.1) ms
[5]; trazodone 20 mg, N = 16, 10 min postdose
  Placebo-adjusted change from baseline QTcF, estimate (90%CI): –1.2 (–6.2 to 3.8) ms
[5]; trazodone 20 mg, N = 16, 20 min postdose
  Placebo-adjusted change from baseline QTcF, estimate (90%CI): –0.2 (–5.4 to 5.0) ms
[5]; trazodone 20 mg, N = 16, 0.5 h postdose
  Placebo-adjusted change from baseline QTcF, estimate (90%CI): 2.1 (–0.3 to 4.6) ms
[5]; trazodone 20 mg, N = 16, 1 h postdose
  Placebo-adjusted change from baseline QTcF, estimate (90%CI): 6.6 (1.5–11.7) ms
[5]; trazodone 20 mg, N = 16, 2 h postdose
  Placebo-adjusted change from baseline QTcF, estimate (90%CI): 3.5 (0.5–6.5) ms
[5]; trazodone 20 mg, N = 16, 3 h postdose
  Placebo-adjusted change from baseline QTcF, estimate (90%CI): 1.7 (–2.7 to 6.1) ms
[5]; trazodone 20 mg, N = 16, 4 h postdose
  Placebo-adjusted change from baseline QTcF, estimate (90%CI): 3.2 (–2.3 to 8.6) ms
[5]; trazodone 20 mg, N = 16, 6 h postdose
  Placebo-adjusted change from baseline QTcF, estimate (90%CI): –0.2 (–4.8 to 4.3) ms
[5]; trazodone 20 mg, N = 16, 8 h postdose
  Placebo-adjusted change from baseline QTcF, estimate (90%CI): 1.2 (–2.3 to 4.6) ms
[5]; trazodone 20 mg, N = 16, 12 h postdose
  Placebo-adjusted change from baseline QTcF, estimate (90%CI): 0.6 (–4.7 to 5.8) ms
[5]; trazodone 20 mg, N = 16, 16 h postdose
  Placebo-adjusted change from baseline QTcF, estimate (90%CI): –3.3 (–6.9 to 0.3) ms
[5]; trazodone 20 mg, N = 16, 24 h postdose
  Placebo-adjusted change from baseline QTcF, estimate (90%CI): 1.8 (–3.5 to 7.1) ms
[5]; trazodone 60 mg, N = 16, 5 min postdose
  Placebo-adjusted change from baseline QTcF, estimate (90%CI): –2.3 (–6.7 to 2.1) ms
[5]; trazodone 60 mg, N = 16, 10 min postdose
  Placebo-adjusted change from baseline QTcF, estimate (90%CI): 0.3 (–4.1 to 4.6) ms
[5]; trazodone 60 mg, N = 16, 20 min postdose
  Placebo-adjusted change from baseline QTcF, estimate (90%CI): 4.8 (–0.4 to 10.0) ms
[5]; trazodone 60 mg, N = 16, 0.5 h postdose
  Placebo-adjusted change from baseline QTcF, estimate (90%CI): 11.9 (8.6–15.3) ms
[5]; trazodone 60 mg, N = 16, 2 h postdose
  Placebo-adjusted change from baseline QTcF, estimate (90%CI): 8.8 (4.2–13.4) ms
[5]; trazodone 60 mg, N = 16, 3 h postdose
  Placebo-adjusted change from baseline QTcF, estimate (90%CI): 6.1 (1.9–10.2) ms
[5]; trazodone 60 mg, N = 16, 4 h postdose
  Placebo-adjusted change from baseline QTcF, estimate (90%CI): 7.9 (4.3–11.5) ms
[5]; trazodone 60 mg, N = 16, 6 h postdose
  Placebo-adjusted change from baseline QTcF, estimate (90%CI): 2.2 (–1.8 to 6.2) ms
[5]; trazodone 60 mg, N = 16, 8 h postdose
  Placebo-adjusted change from baseline QTcF, estimate (90%CI): –0.4 (–3.4 to 2.7) ms
[5]; trazodone 60 mg, N = 16, 12 h postdose
  Placebo-adjusted change from baseline QTcF, estimate (90%CI): 6.4 (1.7–11.0) ms
[5]; trazodone 60 mg, N = 16, 16 h postdose
  Placebo-adjusted change from baseline QTcF, estimate (90%CI): –1.4 (–5.6 to 2.7) ms
[5]; trazodone 60 mg, N = 16, 24 h postdose
  Placebo-adjusted change from baseline QTcF, estimate (90%CI): 2.0 (–3.0 to 6.9) ms
[5]; trazodone 60 mg, N = 16, […] postdose
  Placebo-adjusted change from baseline QTcF, estimate (90%CI): 16.9 ms
[5]; trazodone 60 mg, between 30 minutes and […] postdose
  Increase in the QTcF interval (time-matched analysis): > 10 ms
[5]; trazodone 140 mg, N = 18, 5 min postdose
  Placebo-adjusted change from baseline QTcF, estimate (90%CI): 0.8 (–2.7 to 4.4) ms
[5]; trazodone 140 mg, N = 18, 10 min postdose
  Placebo-adjusted change from baseline QTcF, estimate (90%CI): 0.5 (–3.0 to 4.0) ms
[5]; trazodone 140 mg, N = 18, 20 min postdose
  Placebo-adjusted change from baseline QTcF, estimate (90%CI): 11.6 (7.8–15.5) ms
[5]; trazodone 140 mg, N = 18, 0.5 h postdose
  Placebo-adjusted change from baseline QTcF, estimate (90%CI): 20.2 (16.4–23.9) ms
[5]; trazodone 140 mg, N = 18, 1 h postdose
  Placebo-adjusted change from baseline QTcF, estimate (90%CI): 24.5 (20.3–28.7) ms
[5]; trazodone 140 mg, N = 18, 2 h postdose
  Placebo-adjusted change from baseline QTcF, estimate (90%CI): 17.1 (13.4–20.8) ms
[5]; trazodone 140 mg, N = 18, 3 h postdose
  Placebo-adjusted change from baseline QTcF, estimate (90%CI): 14.5 (7.6–21.5) ms
[5]; trazodone 140 mg, N = 18, 4 h postdose
  Placebo-adjusted change from baseline QTcF, estimate (90%CI): 12.8 (8.5–17.1) ms
[5]; trazodone 140 mg, N = 18, 6 h postdose
  Placebo-adjusted change from baseline QTcF, estimate (90%CI): 6.7 (2.3–11.2) ms
[5]; trazodone 140 mg, N = 18, 8 h postdose
  Placebo-adjusted change from baseline QTcF, estimate (90%CI): 5.8 (0.9–10.7) ms
[5]; trazodone 140 mg, N = 18, 12 h postdose
  Placebo-adjusted change from baseline QTcF, estimate (90%CI): 7.9 (4.3–11.6) ms
[5]; trazodone 140 mg, N = 18, 16 h postdose
  Placebo-adjusted change from baseline QTcF, estimate (90%CI): –0.7 (–5.2 to 3.8) ms
[5]; trazodone 140 mg, N = 18, 24 h postdose
  Placebo-adjusted change from baseline QTcF, estimate (90%CI): 1.7 (–1.4 to 4.8) ms
[5]; trazodone 140 mg, between 15 minutes and 4 hours postdose
  Increase in the QTcF interval (time-matched analysis): > 10 ms
[6]; trazodone 20 mg, n = 18
  New ST‐segment depression changes: 0 n (%)
  New ST‐segment elevation changes: 0 n (%)
  New second‐degree heart block: 0 n (%)
  New third‐degree heart block: 0 n (%)
[6]; trazodone 60 mg, n = 18
  New ST‐segment depression changes: 1 (6) n (%)
  New ST‐segment elevation changes: 0 n (%)
  New second‐degree heart block: 0 n (%)
  New third‐degree heart block: 0 n (%)
[6]; trazodone 140 mg, n = 20
  New ST‐segment depression changes: 0 n (%)
  New ST‐segment elevation changes: 0 n (%)
  New second‐degree heart block: 0 n (%)
  New third‐degree heart block: 0 n (%)
[7]; 20 mg
  AUC: 2150 ± 909 ng·h/mL
  Tmax: 30 min
  Cmax: 413 ± 79.1 ng/mL
[7]; 60 mg
  AUC: 6240 ± 2030 ng·h/mL
  Tmax: 30 min
  Cmax: 1270 ± 598 ng/mL
[7]; 140 mg
  AUC: 12800 ± 4910 ng·h/mL
  Tmax: 18 min
  Cmax: 2080 ± 600 ng/mL
[8]
  Metabolic pathway: primarily metabolized by CYP3A4
[9]; [11]
  Elimination half-life: 894 ± 234 min
  Peak plasma concentrations: 1125 ± 111 ng/mL
[9]; [12]
  Elimination half-life: 402 ± 42 min
  Peak plasma concentrations: 842 ± 64 ng/mL
[10]; trazodone 20 mg, n = 18
  Heart rate: Bradycardic outliers: 0 n (%)
  Heart rate: Tachycardic outliers: 0 n (%)
  PR interval: Outliers: 1 (6) n (%)
  QRS interval: Outliers: 0 n (%)
  QTcF >30‐60 ms inc change from baseline: 0 n (%)
  QTcF >60 ms inc change from baseline: 0 n (%)
  QTcF New >480 ms: 0 n (%)
  QTcF New >500 ms: 0 n (%)
[10]; trazodone 60 mg, n = 18
  Heart rate: Bradycardic outliers: 0 n (%)
  Heart rate: Tachycardic outliers: 1 (6) n (%)
  PR interval: Outliers: 0 n (%)
  QRS interval: Outliers: 0 n (%)
  QTcF >30‐60 ms inc change from baseline: 1 (6) n (%)
  QTcF >60 ms inc change from baseline: 0 n (%)
  QTcF New >480 ms: 0 n (%)
  QTcF New >500 ms: 0 n (%)
[10]; trazodone 140 mg, n = 20
  Heart rate: Bradycardic outliers: 1 (5) n (%)
  Heart rate: Tachycardic outliers: 2 (10) n (%)
  PR interval: Outliers: 1 (5) n (%)
  QRS interval: Outliers: 0 n (%)
  QTcF >30‐60 ms inc change from baseline: 6 (30) n (%)
  QTcF >60 ms inc change from baseline: 0 n (%)
  QTcF New >480 ms: 2 (10) n (%)
  QTcF New >500 ms: 0 n (%)
